Patent US20250115578A1, “AROMATIC FUSED RING NAV1.8 INHIBITOR, AND USE THEREOF” (CHENGDU KANGHONG PHARMACEUTICAL CO., LTD., priority 2022, published 2025)
Values after ≈ are worked out from the molar mass of the structure shown. Like-named read-outs stand apart in the source and are kept apart here.

Legend:
hNav1.8 = hNav1.8 (Homo sapiens (Human), UniProt Q9Y5Y9); assay: Manual patch clamp, Method 1 (CHO cell line stably expressing hNav1.8); type: cell-based; conditions: for inhibition at 0.01 µM / inhibition at 0.1 µM: read-out: Inhibition rate of hNav1.8; for IC50: Method 1, CHO-hNav1.8, manual patch clamp, resting state, read-out: IC50 inhibitory activity against hNav1.8; for inhibition at 0.1 µM: 100 nM
Chain of hNav1.8 (Q9Y5Y9 whole entry): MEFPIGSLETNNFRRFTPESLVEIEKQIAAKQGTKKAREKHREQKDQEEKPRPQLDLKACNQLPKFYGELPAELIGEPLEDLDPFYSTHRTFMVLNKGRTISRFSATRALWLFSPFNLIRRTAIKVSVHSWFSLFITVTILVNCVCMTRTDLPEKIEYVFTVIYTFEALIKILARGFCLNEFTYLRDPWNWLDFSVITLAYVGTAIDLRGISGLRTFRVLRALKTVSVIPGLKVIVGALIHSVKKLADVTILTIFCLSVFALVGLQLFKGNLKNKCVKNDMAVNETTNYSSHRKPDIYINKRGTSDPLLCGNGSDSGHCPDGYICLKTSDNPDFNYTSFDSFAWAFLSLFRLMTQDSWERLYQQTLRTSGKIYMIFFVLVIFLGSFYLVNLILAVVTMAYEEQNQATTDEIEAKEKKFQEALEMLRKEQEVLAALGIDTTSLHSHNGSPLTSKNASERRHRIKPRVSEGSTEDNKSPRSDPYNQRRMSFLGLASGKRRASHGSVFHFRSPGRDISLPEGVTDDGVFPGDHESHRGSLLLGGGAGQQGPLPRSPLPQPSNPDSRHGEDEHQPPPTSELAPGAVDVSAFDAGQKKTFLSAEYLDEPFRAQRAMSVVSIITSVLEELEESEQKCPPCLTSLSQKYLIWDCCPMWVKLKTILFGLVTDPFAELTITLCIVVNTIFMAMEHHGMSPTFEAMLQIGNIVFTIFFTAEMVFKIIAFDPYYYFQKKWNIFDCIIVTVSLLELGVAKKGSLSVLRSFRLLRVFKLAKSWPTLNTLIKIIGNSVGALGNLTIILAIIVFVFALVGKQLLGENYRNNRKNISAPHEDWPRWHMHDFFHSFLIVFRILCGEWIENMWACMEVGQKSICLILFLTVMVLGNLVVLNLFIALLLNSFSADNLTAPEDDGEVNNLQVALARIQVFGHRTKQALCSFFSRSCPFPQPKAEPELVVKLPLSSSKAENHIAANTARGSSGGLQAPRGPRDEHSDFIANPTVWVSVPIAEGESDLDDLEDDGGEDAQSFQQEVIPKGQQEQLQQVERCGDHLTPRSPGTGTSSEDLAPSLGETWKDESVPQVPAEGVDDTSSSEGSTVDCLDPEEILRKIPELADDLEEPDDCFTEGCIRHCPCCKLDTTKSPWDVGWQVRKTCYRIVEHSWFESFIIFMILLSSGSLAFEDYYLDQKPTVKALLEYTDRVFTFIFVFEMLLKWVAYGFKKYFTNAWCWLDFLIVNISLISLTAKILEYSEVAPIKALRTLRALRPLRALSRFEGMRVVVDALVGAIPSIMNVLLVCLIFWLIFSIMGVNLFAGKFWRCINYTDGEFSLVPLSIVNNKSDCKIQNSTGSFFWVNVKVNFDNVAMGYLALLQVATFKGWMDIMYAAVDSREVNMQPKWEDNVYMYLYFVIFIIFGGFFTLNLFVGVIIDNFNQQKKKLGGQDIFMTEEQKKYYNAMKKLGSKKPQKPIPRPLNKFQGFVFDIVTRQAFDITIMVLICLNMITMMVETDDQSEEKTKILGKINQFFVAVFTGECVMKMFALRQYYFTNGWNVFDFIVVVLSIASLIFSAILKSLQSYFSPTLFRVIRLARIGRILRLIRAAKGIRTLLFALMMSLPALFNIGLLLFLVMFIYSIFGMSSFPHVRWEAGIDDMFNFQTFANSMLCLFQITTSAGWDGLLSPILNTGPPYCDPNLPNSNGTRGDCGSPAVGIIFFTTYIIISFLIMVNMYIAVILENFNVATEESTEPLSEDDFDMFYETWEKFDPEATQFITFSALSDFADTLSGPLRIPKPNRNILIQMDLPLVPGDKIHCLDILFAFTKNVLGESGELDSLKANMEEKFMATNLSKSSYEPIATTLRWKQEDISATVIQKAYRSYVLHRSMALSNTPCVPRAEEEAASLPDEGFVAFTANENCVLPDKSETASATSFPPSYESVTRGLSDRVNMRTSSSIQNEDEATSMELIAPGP
Text: The patch clamp technique is known as the “gold standard” for studying ion channels, and it uses glass microelectrodes to seal the cell membrane to measure the currents of various membrane channel. […] Patch clamp technology can evaluate the inhibition strength of different compounds on different states of Navs by measuring the changes of membrane channel currents after different compounds bind to different states of Navs.
The representative compounds of the present invention used stable CHO or HEK293 cell lines transfected with specific ion channels to measure the effect of the compounds on Nav1.8 currents by manual patch clamp test, to evaluate their inhibition strength.
The assay protocol of manual patch clamp is as follows:
CHO cell lines with stable expression of hNav1.8 were cultured in F12 medium containing 10% fetal bovine serum at a constant temperature of 37° C., and the carbon dioxide concentration was maintained at 5%. The old culture medium was removed and washed once with PBS, then 1 mL 0.25%-Trypsin-EDTA solution was added and incubated at 37° C. for 1 min. When the cells were detached from the bottom of the dish, 5 mL of the complete medium preheated at 37° C. was added, and the aggregated cells were separated by gently blowing with a straw. The cell suspension was transferred into a sterile centrifuge tube and centrifuged at 1000 rpm for 5 min to collect cells. The cells were then inoculated into a cell culture dish with a diameter of 6 cm (2.5×10^5 cells/petri dish, 5 mL medium) for expansion or maintenance.
In order to maintain the electrophysiological activity of the cells, the cell density must be less than 80%.
The cells were separated with 0.25%-Trypsin-EDTA before the assay, and 5×10^3 cells were seeded on a cover slip and cultured in a 24-well plate (final volume: 500 μL) for 18 h. Then the assay was conducted.
The compounds prepared in the examples of the present invention were dissolved in dimethyl sulfoxide (DMSO) and prepared into DMSO stock solution with a concentration of 10 mM for assay. And it was diluted to various concentrations with extracellular solution (140 mM NaCl, 3.5 mM KCl, 1 mM MgCl2, 2 mM CaCl2), 10 mM Glucose, 10 mM HEPES, 1.25 mM NaH2PO4, pH=7.4 regulated by NaOH), and the final concentration of DMSO in each compound sample was 0.10% or less.
A capillary glass pipette (BF150-86-10, Sutter Instruments) was pulled into a recording electrode with a micropipette puller (P97, Sutter Instruments). The micromanipulator (MP285, Sutter Instruments) was manipulated under an inverted microscope (IX71, Olympus) to make the recording electrode contact the cell and negative pressure suction was applied to achieve a GQ seal. Then, rapid capacitance compensation was performed, and negative pressure was continued, cell membrane was broken by suction, and whole cell recording mode was formed. Then the slow capacitance was compensated and the membrane capacitance and series resistance were recorded without leakage compensation. When the whole cell recording current was stabilized, dosing was initiated, and the next concentration was detected after acting 5 minutes of each drug concentration. Multiple cells were independently repeated during the recording period. All electrophysiological assays were performed at room temperature. Specifically, 6 concentrations (measuring IC50) or 2 concentrations (preliminary screening) were set for each compound, and the percentage of inhibition of sodium channels was determined by calculating the relative percentage of peak current generated before and after each concentration compound treated cells, and the IC50 value or percentage of inhibition at a specific concentration was calculated using IGOR pro software.

[1] = Assay of kinetic solubility; type: physicochemical; conditions: aqueous buffer, kinetic from dmso stock, pH 3.5 phosphate buffer, 25° C.
Procedure: The stock solutions of the test compound and the standard progesterone were prepared in DMSO at the concentration of 10 mM.
30 μL of stock solutions at 10 mM of the test compounds and standard substance were placed in order into their proper 96-well plate. 970 μL phosphate buffer at the specified pH was added to the proper vial of the sample plate. The assay was performed in duplicate. A stirring stick was added to each vial and the teflon/silicone plug was capped. The sample tray was then placed in the Eppendorf Thermomixer Comfort and shaken at 1100 RPM at 25° C. for 2 hours. After 2 hours, plugs were removed, a big magnet was used to remove the stirring sticks, and samples were transferred from the sample plate to the filter plate. Vacuum pump was used to create negative pressure and filtered the samples. Transferred 5 μL of the filtrate to the new sample plate, then added 5 μL DMSO and 490 μL water/acetonitrile (V/V=1/1) to dilute the solvent. The dilution factor may be adjusted according to the solubility values of the substances to be tested or the strength of its LC-MS signal response.
From the 10 mM DMSO stock solution, 15 μL of that was transferred into the empty plate and 485 μL DMSO was added to prepare a 300 μM standard solution. From the 300 μM standard solution plate, 5 μL of that was transferred to another empty plate and 5 μL phosphate buffer at specified pH and 490 μL water/acetonitrile (V/V=1/1) dilution solvent were added to the standard solution to get a final concentration of 3 μM. The concentration of the standard solution may be adjusted according to the strength of its LC-MS signal response.
The sample plate was placed into the sample tray of the automatic sampler and the samples were evaluated by LC-MS/MS analysis.
All calculations were carried out by Microsoft Excel.
The sample filtrate was analyzed and quantified against a standard of known concentrations using LC-MS spectral peaks to identify and quantify. The solubility values of the control drug and the compounds to be tested were calculated as the following formula: • [Sample]: concentration of the sample • AREASample: peak area of the sample • INJ VOLStd: standard sample injection volume • DFSample: sample dilution factor • [STD]: standard substance concentration • AREAStd: peak area of standard substance • INJ VOLSample: sample injection volume

[2] = Stability assay for human liver microsomes in vitro; type: in vitro ADME; conditions: 1 μM compound, 0.5 mg/mL liver microsomes, read-out: Human liver microsome stability T1/2
Procedure: • Human liver microsomes, purchased from Corning or Xenotech, stored in a −80° C. refrigerator. • Nicotinamide adenine dinucleotide phosphate (NADPH), Chem-impex international, 00616 • Control compounds: testosterone, diclofenac, propafenone
• Water bath (HH-60, Guohua, Changzhou, China) • Pipette workstation (PP-550DS, Apricot, Covina, USA) • Centrifuge (5810R, Eppendorf, Hamburg, Germany) • Mass Spectrometer (Sciex API 4000, Singapore) • High Performance Liquid Chromatography (LC 20-AD, Shimadzu, Kyoto, Japan) • Sampler (ADDA, Apricot Designs, California, USA)
• Stock solution: 10 mM in DMSO • Working solution concentration preparation: 10 mM stock solution was diluted to 100 μM with 100% acetonitrile (organic phase content: 99% ACN, 1% DMSO)
Two 96-well incubation plates were named T60 incubation plate and NCF60 incubation plate.
445 μL microsomal working solution (liver microsomal protein concentration: 0.56 mg/mL) was added to the T60 and NCF60 incubation plates respectively, then the incubation plates above were placed in a water bath at 37° C. for pre-incubation approximately 10 minutes.
After the pre-incubation finished, 5 μL of the test compound working solution was added to the T60 and NCF60 incubation plates respectively, and mixed well. 50 μL potassium phosphate buffer was added to each well on the NCF60 incubation plate to start the reaction. 180 μL termination solution (acetonitrile solution containing 200 ng/mL tolbutamide and 200 ng/mL labetalol) and 6 uL working solution of NADPH regeneration system were added to the TO termination plate, and 54 μL samples were removed from the T60 incubation plate to the TO termination plate (TO sample generated). The reaction was initiated by adding 44 μL of NADPH regenerating system working solution per well on the T60 incubation plate. Only 54 μL microsomal working solution, 6 uL NADPH regeneration system working solution, and 180 μL termination solution were added to the Blank plate. Therefore, in the samples of the test or control compounds, the final reaction concentration of the compounds, testosterone, diclofenac and propafenone was 1 μM, the concentration of the liver microsomes was 0.5 mg/mL, and the final concentration of DMSO and acetonitrile in the reaction system was 0.01% (v/v) and 0.99% (v/v), respectively.
After incubation for an appropriate time (e.g. 5, 10, 20, 30, and 60 minutes), 180 μL of termination solution (acetonitrile solution containing 200 ng/mL tolbutamide and 200 ng/mL labetalol) was added to the sample hole of each termination plate, respectively. After that, 60 μL sample was removed from the T60 incubation plate to terminate the reaction.
All sample plates were shaken evenly and centrifuged at 3220×g for 20 min. Then 80 μL supernatant was taken from each well and diluted to 240 μL pure water for LC-MS/MS analysis.
All samples were injected for analysis.

Human Nav1.8 ion channel = Human Nav1.8 ion channel (Homo sapiens (Human), UniProt Q9Y5Y9); assay: Manual patch clamp, Method 2 (HEK293 cells stably expressing human Nav1.8, resting state); type: cell-based; conditions: Method 2, HEK293-hNav1.8, resting state, 1 μM TTX; read-out: IC50 inhibitory activity against hNav1.8

SMILES	inhibition at 0.01 µM (hNav1.8; CHO) [%]	IC50 (hNav1.8) [nM]	solubility kinetic at 2 h [1] [µM]	half-life at 1 µM [2] [h]	inhibition at 0.1 µM (hNav1.8; Method 1, CHO-hNav1.8) [%]	IC50 (Human Nav1.8 ion channel) [nM]	inhibition at 0.01 µM (hNav1.8; 10 nM, Method 1, CHO-hNav1.8) [%]
NS(=O)(=O)c1cc(NC(=O)c2nc3ccccc3nc2N2CCCC(F)(F)CC2)ccn1 [Example 06, 3-(4,4-difluoroazepan-1-yl)-N-(2-sulfamoylpyridin-4-yl)quinoxaline-2-carboxamide]	77.6	3.1	0.39 (≈ 0.18 µg/mL)	> 2.42	–	–	–
COc1cc2cc(C(=O)Nc3ccnc(C(N)=O)c3)c(N3CCCC(F)(F)CC3)nc2cc1OC [Example 24, N-(2-carbamoylpyridin-4-yl)-2-(4,4-difluoroazepan-1-yl)-6,7-dimethoxyquinoline-3-carboxamide]	–	–	9.88 (≈ 4.8 µg/mL)	> 2.42	51	97.1	–
NC(=O)c1cccc(NC(=O)c2nc3ccccc3nc2N2CCCC(F)(F)CC2)c1 [Example 07, N-(3-carbamoylphenyl)-3-(4,4-difluoroazepan-1-yl)quinoxaline-2-carboxamide]	–	14.7	52.7 (≈ 22.4 µg/mL)	1.06	–	–	48.3
CNS(=O)(=O)c1cc(NC(=O)c2cc3cc(F)c(F)cc3nc2N2CCCC(F)(F)CC2)ccn1 [Example 29, 2-(4,4-difluoroazepan-1-yl)-6,7-difluoro-N-(2-(N-methylsulfamoyl)pyridin-4-yl)quinoline-3-carboxamide]	–	–	< 1.56	–	83.7	–	–
NS(=O)(=O)c1cccc(NC(=O)c2cc3ccccc3nc2Oc2ccc(F)cc2Cl)c1 [Example 30, 2-(2-chloro-4-fluorophenoxy)-N-(3-sulfamoylphenyl)quinoline-3-carboxamide, reference compound]	–	–	< 0.18	–	94	9.5	–
CS(=N)(=O)c1cc(NC(=O)c2cc3ccccc3nc2N2CCCC(F)(F)CC2)ccn1 (stereo not shown) [Example 26, 2-(4,4-difluoroazepan-1-yl)-N-(2-(S-methylsulfonimidoyl)pyridin-4-yl)quinoline-3-carboxamide]	–	–	127 (≈ 58.4 µg/mL)	1.17	91.5	8	–
CNS(=O)(=O)c1cc(NC(=O)c2cc3ccccc3nc2N2CCCC(F)(F)CC2)ccn1 [Example 28, 2-(4,4-difluoroazepan-1-yl)-N-(2-(N-methylsulfamoyl)pyridin-4-yl)quinoline-3-carboxamide]	–	–	131 (≈ 62.3 µg/mL)	–	94.2	11.4	–
NC(=O)c1cc(NC(=O)c2cc3ccccc3nc2N2CCCC(F)(F)CC2)ccc1F [Example 09, N-(3-carbamoyl-4-fluorophenyl)-2-(4,4-difluoroazepan-1-yl)quinoline-3-carboxamide]	–	1	157 (≈ 69.6 µg/mL)	0.372	–	0.918	91.3
CS(=N)(=O)c1cc(NC(=O)c2cc3cc(F)c(F)cc3nc2N2CCCC(F)(F)CC2)ccn1 (stereo not shown) [Example 27, 2-(4,4-difluoroazepan-1-yl)-6,7-difluoro-N-(2-(S-methylsulfonimidoyl)pyridin-4-yl)quinoline-3-carboxamide]	–	–	78.8 (≈ 39 µg/mL)	2.26	97	–	–
Cc1ccc2cc(C(=O)Nc3ccnc(C(N)=O)c3)c(N3CCCC(F)(F)CC3)nc2c1 [Example 23, N-(2-carbamoylpyridin-4-yl)-2-(4,4-difluoroazepan-1-yl)-7-methylquinoline-3-carboxamide]	–	–	–	–	97.2	1.5	–
